Legend:
Test in all cases: relative viability (nuclei count vs DMSO), 5 days (fraction); higher = more cells survive
[1] = compound: CC(O)(CS(=O)(=O)c1ccc(F)cc1)C(=O)Nc1ccc(C#N)c(C(F)(F)F)c1 [Bicalutamide] + CS(=O)(=O)N1CCN(Cc2cc3nc(-c4cccc5[nH]ncc45)nc(N4CCOCC4)c3s2)CC1 [Pictilisib] (partner 1 µM)
Summary of the method: (§1)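 Each reported value is a median over duplicate plates. It expresses relative viability: treated-well nuclei count divided by vehicle-well nuclei count. Lung cancer cell lines in 1536-well plates were dosed by pin tool a day after seeding, alone with one drug or with a fixed anchor-drug dose plus five library-drug doses (not always all listed) in √10 steps, and nuclei were counted after 5 days.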

[2] = compound: CC(O)(CS(=O)(=O)c1ccc(F)cc1)C(=O)Nc1ccc(C#N)c(C(F)(F)F)c1 [Bicalutamide] + CC1(C)CCC(c2ccc(Cl)cc2)=C(CN2CCN(c3ccc(C(=O)NS(=O)(=O)c4ccc(N[C@H](CCN5CCOCC5)CSc5ccccc5)c(S(=O)(=O)C(F)(F)F)c4)cc3)CC2)C1 [Navitoclax] (partner 0.5 µM)
Summary of the method: as §1

[3] = compound: CC(O)(CS(=O)(=O)c1ccc(F)cc1)C(=O)Nc1ccc(C#N)c(C(F)(F)F)c1 [Bicalutamide] + Cc1nc(Nc2ncc(C(=O)Nc3c(C)cccc3Cl)s2)cc(N2CCN(CCO)CC2)n1 [Dasatinib] (partner 0.075 µM)
Summary of the method: as §1

[4] = compound: C(C(=O)C(=O)O)Br [Bromopyruvate] + CC(=O)c1c(C)c2cnc(Nc3ccc(N4CCNCC4)cn3)nc2n(C2CCCC2)c1=O [Palbociclib] (partner 0.5 µM)
Summary of the method: as §1

## UMC-11
[1]; first compound 0.08 µM
  relative viability: 0.742
[1]; first compound 0.253 µM
  relative viability: 0.621
[1]; first compound 0.8 µM
  relative viability: 1.14
[1]; first compound 2.53 µM
  relative viability: 0.768
[2]; first compound 0.08 µM
  relative viability: 0.328
[2]; first compound 0.253 µM
  relative viability: 0.25
[2]; first compound 0.8 µM
  relative viability: 0.281
[2]; first compound 2.53 µM
  relative viability: 0.279
[3]; first compound 0.08 µM
  relative viability: 0.523
[3]; first compound 0.253 µM
  relative viability: 0.399
[3]; first compound 0.8 µM
  relative viability: 0.576
[3]; first compound 2.53 µM
  relative viability: 0.431
[4]; first compound 1 µM
  relative viability: 0.343
[4]; first compound 3.162 µM
  relative viability: 0.353
[4]; first compound 10 µM
  relative viability: 0.324
[4]; first compound 31.62 µM
  relative viability: 0.367
[4]; first compound 100 µM
  relative viability: 0.356
